# In patent US11111238B2, “Coumarin derivatives, processes for their preparation and uses thereof for the treatment of cancer” (Lead Discovery Center GmbH, priority 2017, dated 2021):
# Tests used:
# Format in all cases: cell-based
# [1] = system: mitochondrial transcription (7S RNA) in HeLa cells; experiment: Quantitative real time-PCR assay of inhibition of mitochondrial transcription (cellular qPCR assay IMT); conditions: Homo sapiens, 4 h compound incubation, qRT-PCR according to Example 5, activity class
# Procedure, shortened: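 HeLa cells were exposed 4 h to compound dilution series or DMSO. Mitochondrial 7S RNA, with POLRMT for nuclear transcription, was measured by TaqMan qRT-PCR, normalised to TBP. Biological triplicates were analysed by ΔΔCt and expressed as Rq % (2^-ΔΔCt).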
# [2] = system: NCI-H596 (lung); experiment: CellTiter GLO viability assay, NCI-H596; conditions: Homo sapiens, 144 h, read-out: IC50 (μM) incubation time 144 h
# Experimental: (§1) The CellTiter-Glo Luminescent Cell Viability Assay (Promega) is a homogeneous method of determining the number of viable cells in culture. It is based on quantification of ATP, indicating the presence of metabolically active cells.
# (§2) Cells were seeded on day 1 at cell numbers that assure assay linearity and optimal signal intensity. After incubation for 3 h in humidified chambers at 37° C./5% CO2 compounds/DMSO were added at different concentrations. […] Cells treated with the compound vehicle DMSO were used as positive controls and cells treated with 10 μM Staurosporine served as negative controls. […] Thereon, mixture and assay plates were equilibrated at room temperature for 20 min. Equal volumes of the reagent-medium-mixture was added to the volume of culture medium present in each well.
# (§3) The plates were mixed at ˜200 rpm for 2 minutes on an orbital shaker. The microplates were then incubated at room temperature for 10 minutes for stabilization of the luminescent signal. Following incubation the luminescence is recorded on a Victor microplate reader (Perkin Elmer) using 200 ms integration time. The data were then analyzed with Excel using the XLFIT Plugin (dose response Fit 205) for IC50-determination. As quality control the Z′-factor was calculated from 16 positive and negative control values. Only assay results showing a Z′-factor≥0.5 were used for further analysis.
# [3] = system: SW48 (colon); experiment: CellTiter GLO viability assay, SW48; conditions: Homo sapiens, 144 h, read-out: IC50 (μM) incubation time 144 h
# Experimental: as §1, §2, §3
smiles,measurement,setting,value
"C[C@@H](Oc1ccc2c(-c3ccc(F)cc3Cl)cc(=O)oc2c1)C(=O)N1CCC[C@H](C(=O)O)C1 [Compound 14, (3S)-1-[(2R)-2-[4-(2-chloro-4-fluoro-phenyl)-2-oxo-chromen-7-yl]oxypropanoyl]piperidine-3-carboxylic acid]",IC50,[1],< 10 nM
same,IC50,[2],1 to 10 µM
same,IC50,[3],0.1 to 1 µM
